The values that follow come from patent US5705491A, “Adenosine deaminase inhibitor” (Nippon Zoki Pharmaceutical Co., Ltd., priority 1992, dated 1998).

For orientation: Ki means a measure of affinity in units of concentration, obtained from inhibition or displacement. Lower therefore signals a stronger hold on the target.

One assay addresses T1, adenosine deaminase of type VII (mucous membrane of intestinal tract of calf) (Bos taurus, UniProt P56658).
T1 construct: from tissue; host or cells: mucous membrane of intestinal tract of calf
T1 sequence (P56658 1-363): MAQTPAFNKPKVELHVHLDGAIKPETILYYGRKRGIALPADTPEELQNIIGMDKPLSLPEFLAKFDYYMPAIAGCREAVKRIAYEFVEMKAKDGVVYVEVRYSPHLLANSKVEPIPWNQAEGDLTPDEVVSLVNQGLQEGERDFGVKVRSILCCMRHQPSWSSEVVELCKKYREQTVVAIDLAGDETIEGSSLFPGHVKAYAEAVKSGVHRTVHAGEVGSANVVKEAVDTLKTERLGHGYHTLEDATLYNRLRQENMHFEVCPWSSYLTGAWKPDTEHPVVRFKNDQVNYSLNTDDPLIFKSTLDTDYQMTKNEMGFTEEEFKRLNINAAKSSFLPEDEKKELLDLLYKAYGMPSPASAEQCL
In words: Adenosine deaminase inhibiting action. The class given is biochemical. Particulars: 25° C., 0.05M phosphate buffer pH 7.5, adenosine substrate, 5 minutes, Lineweaver-Burk plots. How it is done: 1. Adenosine Deaminase Inhibiting Action
The enzymatic reaction was conducted at 25° C. in a 0.05M phosphate buffer (pH=7.5). Thus, a reaction solution comprising 800 μl of substrate solution (adenosine), 100 μl of a solution to be tested and 100 μl of enzyme solution (adenosine deaminase of type VII; mucous membrane of intestinal tract of calf) was reacted for 5 minutes and the reaction was stopped by adding 100 μl of acetic acid. Then the amount of inosine produced was determined by means of an HPLC to measure the inhibiting activity. The test was conducted for various substrate concentrations and Ki values were measured by Lineweaver-Burk plots.
In the case of `CO[C@H]1[C@@H](O)[C@H](n2cnc3c(N)nc(I)nc32)O[C@@H]1CO` [Compound 48, 2-Iodo-3'-O-methyladeonsine], the affinity corresponds to a Ki of 4.4 µM.
Same read-out and setting: next, `CCCCCCCCO[C@@H]1[C@H](O)[C@@H](CO)O[C@H]1n1cnc2c(NC)ncnc21` [Compound 24, N^6 -Methyl-2'-O-n-octyladenosine]: 0.11 µM; `CNc1ncnc2c1ncn2[C@@H]1O[C@H](COC)[C@@H](O)[C@H]1O` [Compound 25, N^6, 5'-O-Dimethyladenosine]: 359 µM.
`CCCCCCc1nc(NC)c2ncn([C@@H]3O[C@H](CO)[C@@H](O)[C@H]3OC)c2n1` [Compound 30, N^6,2'-O-Dimethyl-2-hexyladenosine] gave a Ki of 0.09 µM.
Still for that read-out and setting: as for `CNc1ncnc2c1ncn2[C@@H]1O[C@H](CO)[C@@H](O)[C@H]1OC` [Compound 18, N^6,2'-O-Dimethiladenosine], the figure is 1.24 µM; as for `CO[C@@H]1[C@H](O)[C@@H](CO)O[C@H]1n1cnc2c(N)nc(O)nc21` [Compound 39, 2-Hydroxy-2'-O-methyladenosine], 19 µM.
Still for that read-out and setting: as for `CO[C@@H]1[C@H](OC)[C@@H](CO)O[C@H]1n1cnc2c(N)nc(C)nc21` [Compound 63, 2,2',3'-O-Trimethyladenosine], the figure is 1.3 µM; as for `CO[C@H]1[C@@H](O)[C@H](n2cnc3c(N)nc(-c4ccccc4)nc32)O[C@@H]1CO` [Compound 38, 2-Phenyl-3'-O-methyladenosine], 7.9 µM.
As for `CCCCO[C@@H]1[C@H](O)[C@@H](CO)O[C@H]1n1cnc2c(N)ncnc21` [Compound 4, 2'-O-n-Butyladenosine], the inhibition constant Ki was determined as 3.47 µM.
Same read-out and setting: as for `CCO[C@@H]1[C@H](O)[C@@H](CO)O[C@H]1n1cnc2c(NC)ncnc21` [Compound 21, N^6 -Methyl-2'-O-ethyladenosine], the figure is 0.33 µM; as for `CO[C@@H]1[C@H](O)[C@@H](CO)O[C@H]1n1cnc2c(N)nc(Br)nc21` [Compound 43, 2-Bromo-2'-O-methyladenosine], 3.2 µM.
The same measure, in the same setting: as for `CO[C@@H]1[C@H](O)[C@@H](CO)O[C@H]1n1cnc2c(N)nc(C)nc21` [Compound 5, 2,2'-O-Dimethyl adenosine], the figure is 24.6 µM.
Same read-out and setting: next, `CCCCCCO[C@@H]1[C@H](O)[C@@H](CO)O[C@H]1n1cnc2c(NC)ncnc21` [Compound 23, N^6 -Methyl-2'-O-n-hexyladenosine]: 0.89 µM; `CO[C@@H]1[C@H](O)[C@@H](CO)O[C@H]1n1cnc2c(NC3CCCCC3)ncnc21` [Compound 73, N^6 -Cyclohexyl-2'-O-methyladenosine]: 1030 µM.
Take `CNc1nc(Nc2ccccc2)nc2c1ncn2[C@@H]1O[C@H](CO)[C@@H](O)[C@H]1OC` [Compound 55, 2-Phenylamino-N^6,2'-O-dimethyladenosine]: the Ki was found to be 0.013 µM.
For the compound `CCNc1ncnc2c1ncn2[C@@H]1O[C@H](CO)[C@@H](O)[C@H]1OC` [Compound 19, N^6 -Ethyl-2'-O-methyladenosine], the inhibition constant Ki was determined as 77.8 µM.
In turn, `CCCCCNc1nc(N)c2ncn([C@@H]3O[C@H](CO)[C@@H](O)[C@H]3OC)c2n1` [Compound 52, 2-Pentylamino-2'-O-methyladenosine] showed a Ki of 0.6 µM.
Still for that read-out and setting: as for `CO[C@@H]1[C@H](O)[C@@H](CO)O[C@H]1n1cnc2c(N)nc(-c3ccccc3)nc21` [Compound 37, 2-Phenyl-2'-O-methyladenosine], the figure is 0.66 µM.
The same measure, in the same setting: next, `CNc1ncnc2c1ncn2[C@@H]1O[C@H](CO)[C@@H](OC)[C@H]1OC` [Compound 60, N^6,2',3'-O-Trimethyladenosine]: 0.75 µM; `CCCCNc1ncnc2c1ncn2[C@@H]1O[C@H](CO)[C@@H](O)[C@H]1OC` [Compound 20, N^6-n-Butyl-2'-O-methyladenosine]: 269 µM.
Compound `CO[C@@H]1[C@H](O)[C@@H](CO)O[C@H]1n1cnc2c(N)ncnc21` [Compound 1, 2'-O-Methyladenosine] registered a Ki of 13.1 µM.
As for `CNc1nc(Nc2ccccc2)nc2c1ncn2[C@@H]1O[C@H](CO)[C@@H](OC)[C@H]1O` [Compound 56, 2-Phenylamino-N^6,3'-O-dimethyladenosine], the Ki amounted to 0.11 µM.
Still for that read-out and setting: next, `CO[C@H]1[C@@H](O)[C@H](n2cnc3c(N)nc(C)nc32)O[C@@H]1CO` [Compound 6, 2,3'-O-Dimethyl adenosine]: 179 µM.
As for `CO[C@@H]1[C@H](O)[C@@H](CO)O[C@H]1n1cnc2c(N)nc(I)nc21` [Compound 47, 2-Iodo-2'-O-methyladenosine], the Ki turned out to be 0.23 µM.
For `CNc1nc(C)nc2c1ncn2[C@@H]1O[C@H](CO)[C@@H](OC)[C@H]1OC` [Compound 64, 2,N^6,2',3'-O-Tetramethyladenosine], the Ki amounted to 0.88 µM.
On the same count and under the same terms, as for `CO[C@H]1[C@@H](O)[C@H](n2cnc3c(N)nc(Br)nc32)O[C@@H]1CO` [Compound 44, 2-Bromo-3'-O-methyladeonsine], the figure is 22 µM.
Compound `CCCCCCCCCCC#Cc1nc(NC)c2ncn([C@@H]3O[C@H](CO)[C@@H](O)[C@H]3OC)c2n1` [Compound 33, N^6,2'-O-Dimethyl-2-(1-dodecyn-1-yl)-adenosine] returned a Ki of 15 µM. This Ki and that of the compound before are within 1.5-fold of each other.
Still for that read-out and setting: next, `CCCCCCCCCCc1nc(NC)c2ncn([C@@H]3O[C@H](CO)[C@@H](O)[C@H]3OC)c2n1` [Compound 31, N^6,2'-O-Dimethyl-2-decyladenosine]: 0.28 µM; `CO[C@@H]1[C@H](O)[C@@H](CO)O[C@H]1n1cnc2c(N)nc(C#CCO)nc21` [Compound 57, 2-(3-Hydroxy-1-propyn-1-yl)-2'-O-methyladenosine]: 30 µM; `CO[C@@H]1[C@H](O)[C@@H](CO)O[C@H]1n1cnc2c(N)nc(N)nc21` [Compound 50, 2-Amino-2'-O-methyladenosine]: 28 µM.
Same read-out and setting: as for `CNc1nc(C)nc2c1ncn2[C@@H]1O[C@H](COC)[C@@H](O)[C@H]1O` [Compound 34, 2,N^6,5'-O-Trimethyladenosine], the figure is 359 µM.
On to `CCO[C@@H]1[C@H](OCC)[C@@H](CO)O[C@H]1n1cnc2c(NC)ncnc21` [Compound 61, N^6 -Methyl-2',3'-O-diethyladenosine], for which the Ki was found to be 0.15 µM.
The same measure, in the same setting: as for `CO[C@H]1[C@@H](O)[C@H](n2cnc3c(N)nc(Nc4ccccc4)nc32)O[C@@H]1CO` [Compound 54, 2-Phenylamino-3'-O-methyladenosine], the figure is 2.2 µM; as for `CO[C@@H]1[C@H](OC)[C@@H](CO)O[C@H]1n1cnc2c(N)ncnc21` [Compound 59, 2',3'-O-Dimethyladenosine], 7.5 µM.
Still for that read-out and setting: as for `CO[C@H]1[C@@H](O)[C@H](n2cnc3c(N)ncnc32)O[C@@H]1CO` [Compound 2, 3'-O-Methyladenosine], the figure is 493 µM; as for `CO[C@H]1[C@@H](O)[C@H](n2cnc3c(N)nc(N)nc32)O[C@@H]1CO` [Compound 51, 2-Amino-3'-O-methyladenosine], 5 µM; as for `CNc1nc(Br)nc2c1ncn2[C@@H]1O[C@H](CO)[C@@H](O)[C@H]1OC` [Compound 45, 2-Bromo-N^6,2'-O-dimethyladenosine], 0.12 µM.
Take `CNc1nc(Br)nc2c1ncn2[C@@H]1O[C@H](CO)[C@@H](OC)[C@H]1O` [Compound 46, 2-Bromo-N^6,3'-O-dimethyladeonsine]: the Ki was found to be 3.7 µM. Compared with the last compound, the Ki is about 31-fold higher.
Still for that read-out and setting: as for `CO[C@@H]1[C@H](O)[C@@H](CO)O[C@H]1n1cnc2c(N)nc(Nc3ccccc3)nc21` [Compound 53, 2-Phenylamino-2'-O-methyladenosine], the figure is 0.17 µM; as for `CCCCC#Cc1nc(NC)c2ncn([C@@H]3O[C@H](CO)[C@@H](O)[C@H]3OC)c2n1` [Compound 32, N^6,2'-O-Dimethyl-2-(1-hexyn-1-yl)-adenosine], 0.12 µM.
Same read-out and setting: next, `CCCCO[C@@H]1[C@H](O)[C@@H](CO)O[C@H]1n1cnc2c(NC)ncnc21` [Compound 22, N^6 -Methyl-2'-O-n-butyladenosine]: 0.0558 µM.

For a further assay, the system named is ischemic edema of hind paw of mice. In words: Suppressive action against ischemic edema. The class given is in vivo, ICR-strain male mice. Conditions: 10 mg/kg intravenous before ischemia; treated paw. How it is done:
4. Suppressive Action against Ischemic Edema
The right hind paw of ICR-strain male mice (11 weeks of age) were fastened with a rubber band to stop the blood stream for 20 minutes, and then the rubber band was removed to recover the blood stream. The tested drug was administered intravenously before the treatment. Each of the right and left hind paws were weighed and the suppressive action was measured according to the weight difference between the treated and untreated paws.
Turning to `Oc1ncnc2[nH]ncc12` [Allopurinol], the “Paw Weight, Treated” value was found to be 283.2 ± 6.3 mg.

Still in this assay, the particulars now being: 10 mg/kg intravenous before ischemia; untreated paw.
On to `Oc1ncnc2[nH]ncc12` [Allopurinol], for which the “Paw Weight, Untreated” value came out at 222.9 ± 6.9 mg.

Staying with this assay, now noted: 10 mg/kg intravenous; from weight difference between treated and untreated paws.
Turning to `Oc1ncnc2[nH]ncc12` [Allopurinol], the “Inhibition (of ischemic edema)” value was 36.4%.
